Reference: patent US4351948A, “Imidazole hydrazone derivatives” (priority 1980, dated 1982)
Converted amounts (≈) assume the structure as drawn. Counter-ions that a name gives are not always drawn. Like-named read-outs stand apart in the source and are kept apart here.

Assays:
candida albicans = assay: Oral treatment: recovery of viable candida albicans from the kidneys of infected mice; format: in vivo
Source text: Effect of oral treatment with HC274, HC316, HC390, HC415 and Ketoconazole on the recovery of viable candida albicans from the kidneys of infected mice.

in vivo = conditions: male mice, 7 day
[1] = system: C. perfringens (ATCC 13124); assay: microbe, parasite or virus in culture; format: cell-based; conditions: Clostridium perfringens, ATCC13124, 24 h
C. sporogenes ATCC 19404 = assay: Antianaerobic activity, MIC by standard broth dilution method (Table II); format: cell-based; conditions: Clostridium sporogenes, ATCC19404, 24 h, read-out: Minimal Inhibitory Concentration (MIC)
Protocol: (§1) The activity of the compounds identified in the Table II below was tested for antianaerobic activity against one strain of Bacteroides fragilis, one strain of Bacteroides uniformis, one strain of Clostridium sporogenes and one strain of Trichomonas vaginalis as the test organism. The methods used involved determining the minimum inhibitory concentration by the standard broth dilution method. The values for metronidazole (2-methyl-5-nitro-1H-imidazole-1-ethanol) are given above for reference purposes. For convenience the compounds are referred to by an internal reference number (an HC number) and this is correlated with the number of the Example wherein its production is described.

B. fragilis ATCC 23745 = assay: as above; format: cell-based; conditions: Bacteroides fragilis, ATCC23745, 24 h, read-out: Minimal Inhibitory Concentration (MIC)
Protocol: as §1, with “The values for metronidazole (2-methyl-5-nitro-1H-imidazole-1-ethanol) are given above for reference purposes.” left out

B. uniformis ATCC 8492 = assay: as above; format: cell-based; conditions: Bacteroides uniformis, ATCC8492, 24 h, read-out: Minimal Inhibitory Concentration (MIC)
Protocol: as §1, with “The values for metronidazole (2-methyl-5-nitro-1H-imidazole-1-ethanol) are given above for reference purposes.” left out

T. vaginalis ATCC 30001 = assay: as above; format: cell-based; conditions: Trichomonas vaginalis, ATCC30001, 24 h, read-out: Minimal Inhibitory Concentration (MIC)
Protocol: as §1, with “The values for metronidazole (2-methyl-5-nitro-1H-imidazole-1-ethanol) are given above for reference purposes.” left out

[2] = system: Clostridium sporogenes ATCC 19404; assay: Minimal inhibitory concentration against anaerobic bacteria; format: cell-based; conditions: ATCC19404, 24 h
[3] = system: Bacteroides fragilis ATCC 23745; assay: as above; conditions: ATCC23745, 24 h
[4] = system: Bacteroides uniformis ATCC 8492; assay: as above; conditions: ATCC8492, 24 h
[5] = system: Desulfovibrio desulfuricans API-CORE; assay: as above; conditions: 24 h
[6] = system: Desulfovibrio desulfuricans API-BREWER; assay: as above; conditions: 24 h
[7] = system: Desulfovibrio desulfuricans API-SW2; assay: as above; conditions: for Minimal Inhibitory Concentration: 24 hours at 37° C.
[8] = read-out: Minimal Inhibitory Concentration, Test 1, 24 hours at 37° C.
[9] = read-out: Minimal Inhibitory Concentration, Test 2, 24 hours at 37° C.
[10] = read-out: Minimal Inhibitory Concentration, Test 3, 24 hours at 37° C.

| Structure (SMILES) | Recovery of C.albicans (as percentage of control) (candida albicans; 5 mg/kg) | Recovery of C.albicans (as percentage of control) (candida albicans; 20 mg/kg) | MIC [1] [µg/mL] | MIC (C. sporogenes ATCC 19404; Test 1) [µg/mL] | MIC (C. sporogenes ATCC 19404; Test 2) [µg/mL] | MIC (C. sporogenes ATCC 19404; Test 3) [µg/mL] | MIC (B. fragilis ATCC 23745; Test 1) [µg/mL] | MIC (B. fragilis ATCC 23745; Test 2) [µg/mL] | MIC (B. fragilis ATCC 23745; Test 3) [µg/mL] | MIC (B. uniformis ATCC 8492; Test 1) [µg/mL] | MIC (B. uniformis ATCC 8492; Test 2) [µg/mL] | MIC (B. uniformis ATCC 8492; Test 3) [µg/mL] | MIC (T. vaginalis ATCC 30001; Test 1) [µg/mL] | MIC (T. vaginalis ATCC 30001; Test 2) [µg/mL] | MIC (T. vaginalis ATCC 30001; Test 3) [µg/mL] | further results |
| --- | --- | --- | --- | --- | --- | --- | --- | --- | --- | --- | --- | --- | --- | --- | --- | --- |
| Clc1ccc(/C(Cn2ccnc2)=N/Nc2c(Cl)cccc2Cl)s1 [HC390, (E)-1-(5-chlorothienyl-2-yl)-2-(1H-imidazol-1-yl)ethanone, 2,6-dichlorophenylhydrazone, hydrochloride] | 57.3 percentage of control | 41.1 percentage of control | 3.1 | 2.5 | 5 | 7.5 | 5 | 2.5 | 2.5 | 2.5 | 2.5 | 2.5 | > 50 | > 50 | > 50 | LD50 at 168 h (in vivo; mouse, in vivo, ip, read-out: LD50): 610 mg/kg; LD12.5 (in vivo; p.o.): > 1500 mg/kg |
| Cc1ncc([N+](=O)[O-])n1CCO [Metronidazole, 2-methyl-5-nitro-1H-imidazole-1-ethanol, reference compound] | – | – | 0.3 (≈ 1.75 µM) | – | – | – | – | – | – | – | – | – | – | – | – | MIC ([2]; Test 1, 24 hours at 37° C.): 0.5 µg/mL (≈ 2.92 µM); MIC ([2]; Test 2, 24 hours at 37° C.): 0.25 µg/mL (≈ 1.46 µM); MIC ([2]; Test 3, 24 hours at 37° C.): 0.75 µg/mL (≈ 4.38 µM); MIC [3, 8]: 0.75 µg/mL (≈ 4.38 µM); MIC [3, 9]: 0.75 µg/mL (≈ 4.38 µM); MIC [3, 10]: 0.5 µg/mL (≈ 2.92 µM); MIC [4, 8]: 0.5 µg/mL (≈ 2.92 µM); MIC [4, 9]: 0.25 µg/mL (≈ 1.46 µM); MIC [4, 10]: 0.25 µg/mL (≈ 1.46 µM); MIC [5, 8]: 0.5 µg/mL (≈ 2.92 µM); MIC [5, 9]: 0.25 µg/mL (≈ 1.46 µM); MIC [5, 10]: 0.25 µg/mL (≈ 1.46 µM); MIC [6, 8]: 0.5 µg/mL (≈ 2.92 µM); MIC [6, 9]: 0.5 µg/mL (≈ 2.92 µM); MIC [6, 10]: 0.5 µg/mL (≈ 2.92 µM); MIC ([7]; Desulfovibrio desulfuricans, APISW2, 24 h, read-out: Minimal Inhibitory Concentration): 0.25 µg/mL (≈ 1.46 µM); Minimal Inhibitory Concentration ([7]; Test 2): 0.25 mg/L; Minimal Inhibitory Concentration ([7]; Test 3): 0.25 mg/L |
| Cl.Clc1ccc(NN=C(Cn2ccnc2)c2ccccc2Cl)c(Cl)c1 [HC316, 1-(2-Chlorophenyl)-2-(1H-imidazol-1-yl)ethanone, 2,4-dichlorophenylhydrazone, hydrochloride] | 56.2 percentage of control | 46.5 percentage of control | 0.8 | 1 | 2.5 | 2.5 | 2.5 | 2.5 | 2.5 | 2.5 | 2.5 | 2.5 | 50 | 50 | 50 | – |
